Assay results published in paper PMC4102551, “Screening and Characterisation of Antimicrobial Properties of Semisynthetic Betulin Derivatives” (PLoS ONE, 2014).
≈ marks a conversion by molar mass, not a printed value. Where “and” joins values, the source holds several entries; their conditions need not be identical. Equal values may be shown once.

How the values were obtained:
C. albicans ATCC 90028 = test: Broth microdilution assay, C. albicans; type: cell-based, Candida albicans; details: for Inhibitory effect (%) C. albicans ATCC 90028: 50 µM, 48 h at 35°C, inhibition of growth, mean ± SD
Method: (§1) Clinically used antimicrobial agents were selected based on international guidelines for antimicrobial testing and were utilised as reference compounds in the antimicrobial assays. The compounds were purchased from Sigma, Fluka and ICN Biomedicals. Stock solutions of the reference compounds were prepared either in double distilled sterile MilliQ water or in DMSO. Water solutions were sterilised through a 0.22 µm filter (VWR International). […] During the primary screening, these reference compounds were used as positive controls at the determined MIC on every plate.
(§2) Gram-negative strains Escherichia coli (ATCC 25922), Enterobacter aerogenes (ATCC 13048) and Pseudomonas aeruginosa (ATCC 27853), Gram-positive strains Staphylococcus aureus (ATCC 25923) and Enterococcus faecalis (ATCC 29212), and fungal strain Candida albicans (ATCC 90028) were obtained from Microbiologics Inc., and used for the antimicrobial screening. Strains were selected according to the guidelines set for clinical laboratories by Clinical and Laboratory Standards Institute [CLSI, formerly National Committee on Clinical Laboratory Standards [22]] and the European Committee on Antimicrobial Susceptibility Testing (EUCAST). Bacterial strains were grown on Mueller Hinton II Agar (MHA) (BBL, BD) and Mueller Hinton II broth (MHB) (BBL, BD), whereas Candida was initiated on Sabouraud Dextrose Agar (SDA) (Difco, BD) plates. Media were prepared into MilliQ water according to manufacturer’s instruction and autoclaved at 121°C for 15 min. Bacteria were plated on MHA plates and incubated at 37°C for 16–18 h. Bacterial suspension for the assays was prepared by subculturing the bacteria into MHB and by incubating at 37°C for 16–20 h at 110 rpm prior to the assay. Candida strain was grown on SDA plates at 27°C for 16–18 h and suspended into sterile 0.9% saline for the assay.
(§3) Antimicrobial screening assays were performed by broth microdilution method following the guidelines of CLSI and EUCAST. Bacterial suspensions were prepared as mentioned earlier and diluted with MHB to obtain a final inoculum of 5×10^5 colony-forming units (cfu)/mL in the assay for all the bacteria (based on OD620 values previously calibrated against plate counts). Candida suspension was prepared into sterile 0.9% saline solution as stated earlier. […] Assays were carried out in clear 96-well microtitre plates and initiated by dispensing an equal volume of microbial suspension and sample solution diluted into the assay medium into the wells. The plates were incubated for 24 h at 37°C (for Candida the incubation was at 35°C for 48 h) with agitation. Absorbance was measured at 620 nm with Victor plate reader (Wallac 1420, Perkin Elmer) at 0, 4 and 24 h with the bacteria, and at 0, 24 and 48 h with Candida. The antimicrobial activity of the samples was calculated from the absorbance values by comparing to the controls, and expressed as a percentage inhibition of growth. All the betulin derivatives were first assayed at the single concentration of 50 µM (two separate experiments, each with three replicates). […] The MIC90 value was expressed as the lowest concentration of compound that inhibited the microbial growth by >90%. The MIC90 results are means of three replicates from two separate experiments.

P. aeruginosa ATCC 27853 = test: Broth microdilution assay, P. aeruginosa; type: cell-based, Pseudomonas aeruginosa; details: for Inhibitory effect (%) P. aeruginosa ATCC 27853: 50 µM, 24 h, inhibition of growth, mean ± SD
Method: as §1, §2, §3

S. aureus ATCC 25923 = test: Broth microdilution assay, S. aureus; type: cell-based, Staphylococcus aureus; details: 50 µM, 24 h, inhibition of growth, mean ± SD
Method: as §1, §2, §3

E. faecalis ATCC 29212 = test: Broth microdilution assay, E. faecalis; type: cell-based, Enterococcus faecalis; details: 50 µM, 24 h, inhibition of growth, mean ± SD
Method: as §1, §2, §3

Huh-7 cells = test: in vitro; type: cell-based, human; details: 24 h exposure; for Cytotoxicity (%) Huh-7 cells: 50 µM, ATP content, 5% FBS
Method: Huh-7 cells (derived from human hepatocellular carcinoma) were obtained as a gift from Prof. Ralf Bartenschlager (University of Heidelberg, Germany) and used for assessing the cytotoxicity against mammalian cells. HL cells (a heteroploid cell line used for propagating respiratory viruses) were used as a host cell line in the host-pathogen co-culture assay. […] Both cell lines were cultured at 37°C, 5% CO2 and 95% humidity.
The effect of the betulin derivatives on metabolic activity of Huh-7 cells was evaluated by measuring the intracellular ATP content of the cells after 24 h exposure to the compounds. In brief, cells were seeded at 20000 cells/well on white-walled microplates (PerkinElmer) and incubated at 37°C, 5% CO2 and 95% humidity. After culturing the cells overnight, the medium was replaced with the assay media (5% FBS) containing the sample and the cells were incubated for 24 h. Polymyxin B sulphate (15000 IU/mL) was used as a positive control. Following the incubation period, Promega’s CellTiter-Glo Cell Viability Assay was used to determine the intracellular ATP levels according to the manufacturer’s instructions. Cells were washed with 100 µL 6.7 mM PBS, pH 7.4 and 50 µL of fresh assay media and 50 µL of the CellTiter-Glo reagent were added into the wells. After 2 min shaking, followed by 10 min incubation at RT, luminometric signal was measured using Varioskan Flash plate reader (Thermo Fisher Scientific).

E. aerogenes ATCC 13048 = test: Broth microdilution assay, E. aerogenes; type: cell-based, Enterobacter aerogenes; details: for Inhibitory effect (%) E. aerogenes ATCC 13048: 50 µM, 24 h, inhibition of growth, mean ± SD
Method: as §1, §2, §3

E. coli ATCC 25922 = test: Broth microdilution assay, E. coli; type: cell-based, Escherichia coli; details: for Inhibitory effect (%) E. coli ATCC 25922: 50 µM, 24 h, inhibition of growth, mean ± SD
Method: as §1, §2, §3

[1] = lowest concentration inhibiting growth by >90%

Compound	MIC90 (C. albicans ATCC 90028; Candida albicans, ATCC90028, lowest concentration inhibiting growth by >90%, read-out: MIC90 of positive control, C. albicans) [µg/mL]	Inhibitory effect (%) P. aeruginosa ATCC 27853 (P. aeruginosa ATCC 27853) [%]	Inhibitory effect (%) S. aureus ATCC 25923 (S. aureus ATCC 25923) [%]	Inhibitory effect (%) C. albicans ATCC 90028 (C. albicans ATCC 90028) [%]	Inhibitory effect (%) E. faecalis ATCC 29212 (E. faecalis ATCC 29212)	Cytotoxicity (%) Huh-7 cells (Huh-7 cells) [%]	Inhibitory effect (%) E. aerogenes ATCC 13048 (E. aerogenes ATCC 13048)	Inhibitory effect (%) E. coli ATCC 25922 (E. coli ATCC 25922) [%]	MIC90 of positive control, P. aeruginosa (P. aeruginosa ATCC 27853; [1])	MIC90 of positive control, E. aerogenes (E. aerogenes ATCC 13048; [1])	MIC90 of positive control, E. coli (E. coli ATCC 25922; [1])	IC50 cytotoxicity Huh-7 cells (positive control) (Huh-7 cells; ATP assay) [IU/mL]
C[C@@H]1[C@H](O)[C@@H](C)/C=C/C=C/C=C/C=C/C=C/C=C/C=C/[C@H](O[C@@H]2O[C@H](C)[C@@H](O)[C@H](N)[C@@H]2O)C[C@@H]2O[C@](O)(C[C@@H](O)C[C@@H](O)[C@H](O)CC[C@@H](O)C[C@@H](O)CC(=O)O[C@H]1C)C[C@H](O)[C@H]2C(=O)O [Amphotericin B, reference compound]	2 (≈ 2.16 µM)											
C=C(C)[C@@H]1CC[C@]2(COC(=O)C3C(C=C(C)C)C3(C)C)CC[C@]3(C)[C@H](CC[C@@H]4[C@@]5(C)CC[C@H](O)C(C)(C)[C@@H]5CC[C@]43C)[C@@H]12 (stereo partly drawn) [Compound 3, 28-O-chrysanthemoylbetulin]		4.4±1.4	-23.2±11	35.4±3.8	46.9±6.0%	-5.8±2.5	10.6±0.5%	0.3±1.7				
C=C(C)[C@@H]1CC[C@]2(COC(=O)c3cccnc3)CC[C@]3(C)[C@H](CC[C@@H]4[C@@]5(C)CC[C@H](O)C(C)(C)[C@@H]5CC[C@]43C)[C@@H]12 [Compound 6, 28-O-nicotinoylbetulin]		2.2±2.2	-17.7±2.0	36.7±7.6	60.1±4.0%	-0.4±3.4	7.5±1.3%	-0.6±6.8				
C=C(C)[C@@H]1CC[C@]2(COC(C)=O)CC[C@]3(C)[C@H](CC[C@@H]4[C@@]5(C)CC[C@H](O)C(C)(C)[C@@H]5CC[C@]43C)[C@@H]12 [Compound 9]		-0.6±3.3	5.1±6.9	3.0±10.1	50.9±2.1%	5.1±1.0	9.1±2.1%	-0.2±7.1				
C=C(C)C1CCC2(CO)CCC3(C)C(CCC4C5(C)CCC(OC(C)=O)C(C)(C)C5CCC43C)C12 (stereo not drawn) [Compound 12]		1.8±1.2	-16.3±7.4	-18.0±27.4	54.7±7.9%	3.8±14.1	14.5±1.3%	1.0±5.0				
C=C(C)C1CCC2(COS(C)(=O)=O)CCC3(C)C(CCC4C5(C)CCC(OC(C)=O)C(C)(C)C5CCC43C)C12 (stereo not drawn) [Compound 13]		6.5±0.9	-16.5±3.0	-14.8±8.5	61.2±1.5%	0.2±3.8	15.0±1.9%	-0.4±3.4				
C=C(C)[C@@H]1CC[C@]2(C(=O)OC)CC[C@]3(C)[C@H](CC[C@@H]4[C@@]5(C)CC[C@H](O)C(C)(C)[C@@H]5CC[C@]43C)[C@@H]12 [Compound 20, betulinic acid methyl ester]		8.6±2.5	5.3±4.2	34.3±5.6	51% and 51.1±0.6%	33.7±7.0	39% and 38.9±1.5%	13.5±8.9				
C=C(C)C1CCC2(C=O)CCC3(C)C(CCC4C5(C)CCC(=O)C(C)(C)C5CCC43C)C12 (stereo not drawn) [Compound 22]		4.5±1.6	0.1±1.5	-18.7±15.1	16.3±19.0%	4.1±17.7	6.0±4.6%	-1.2±0.5				
C=C(C)[C@@H]1CC[C@]2(C(=O)OC)CC[C@]3(C)[C@H](CC[C@@H]4[C@@]5(C)CCC(=O)C(C)(C)[C@@H]5CC[C@]43C)[C@@H]12 [Compound 25, methyl ester of betulonic acid]		2.3±0.3	2.5±1.3	-30.0±17.3		23.0±4.0	11.4±3.9%	-3.3±1.4				
C=C(C)C1CCC2(C(=O)NC(CC(=O)O)C(=O)O)CCC3(C)C(CCC4C5(C)CCC(=O)C(C)(C)C5CCC43C)C12 [Compound 27, L-aspartyl amide of betulonic acid]		-1.2±0.4	12.7±3.3	44.2±3.8	38.2±15.5%	10.9±1.3	9.3±1.0%	3.1±4.6				
C=C(C)[C@@H]1CC[C@]2(C=NO)CC[C@]3(C)[C@H](CC[C@@H]4[C@@]5(C)CCC(=NO)C(C)(C)[C@@H]5CC[C@]43C)[C@@H]12 [Compound 30]		1.4±1.1	5.1±6.0	13.9±8.8	57% and 56.9±2.6%	42.4±5.4	18.5±3.4%	7.9±6.1				
C=C(C)[C@@H]1CC[C@]2(C#N)CC[C@]3(C)[C@H](CC[C@@H]4[C@@]5(C)CCC(=NOC(C)=O)C(C)(C)[C@@H]5CC[C@]43C)[C@@H]12 [Compound 32]		5.7±1.7	5.5±1.9	-43.8±12.6	57% and 56.6±7.0%	-7.2±3.0	12.0±3.0%	5.5±1.5				
Gentamycin [reference compound]									(8 µg/mL)	(0.5 µg/mL)	(2 µg/mL)	
Polymyxin B sulphate [reference compound]												9361
